# Article PMC10044159, “Inhibitory effects of sulfenimides on human and bovine carbonic anhydrase enzymes” (Journal of Enzyme Inhibition and Medicinal Chemistry, 2023)
# Target: T1, hCA-I (Homo sapiens, UniProt P00915)
# T1 construct: gene CA1
# Test: CO2 hydratase assay (Wilbur-Anderson)
# Format: biochemical
# Excerpt: CO2 hydratase assay (Wilbur-Anderson) on hCA-I
# T1 sequence (P00915 2-261): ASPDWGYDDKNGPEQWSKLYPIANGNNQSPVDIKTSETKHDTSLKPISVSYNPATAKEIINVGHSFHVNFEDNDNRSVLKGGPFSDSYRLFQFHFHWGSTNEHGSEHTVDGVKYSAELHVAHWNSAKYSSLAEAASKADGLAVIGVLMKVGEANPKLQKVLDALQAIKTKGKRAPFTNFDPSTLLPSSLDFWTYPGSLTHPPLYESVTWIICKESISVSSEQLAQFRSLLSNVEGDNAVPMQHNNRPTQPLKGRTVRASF
row,Compound,Ki [µM]
1,O=C1c2ccccc2C(=O)N1Sc1ccccc1 [1a],0.0585
2,O=C1c2ccccc2C(=O)N1Sc1ccc([N+](=O)[O-])cc1 [1d],0.119
3,O=C1c2ccccc2C(=O)N1SCc1ccccc1 [1g],0.0408
4,O=C1c2ccccc2C(=O)N1SC1CCCCC1 [1h],0.0503

# Stronger by Ki, values ahead:
row,Ki [µM],Compound
1,0.0379,COc1ccc(SN2C(=O)c3ccccc3C2=O)cc1 [1c]
2,0.0321,O=C1c2ccccc2C(=O)N1Sc1ccc(Cl)cc1 [1e]
3,0.023,O=C1c2ccccc2C(=O)N1Sc1ccc(Br)cc1 [1f]
4,0.0254,O=C1c2ccccc2C(=O)N1Sc1nc2ccccc2[nH]1 [1i]

# Target: T2, hCA-II (Homo sapiens, UniProt P00918)
# T2 construct: gene CA2
# Test: CO2 hydratase assay (Wilbur-Anderson)
# Format: biochemical
# Excerpt: CO2 hydratase assay (Wilbur-Anderson) on hCA-II
row,Compound,Ki [µM]
1,O=C1c2ccccc2C(=O)N1Sc1ccccc1 [1a],0.0515
2,O=C1c2ccccc2C(=O)N1Sc1ccc([N+](=O)[O-])cc1 [1d],0.152
3,O=C1c2ccccc2C(=O)N1SCc1ccccc1 [1g],0.052
4,O=C1c2ccccc2C(=O)N1SC1CCCCC1 [1h],0.0617

# The remaining lines, values ahead:
row,Ki [µM],Compound
1,0.06,COc1ccc(SN2C(=O)c3ccccc3C2=O)cc1 [1c]
2,0.143,O=C1c2ccccc2C(=O)N1Sc1ccc(Cl)cc1 [1e]
3,0.044,O=C1c2ccccc2C(=O)N1Sc1ccc(Br)cc1 [1f]
4,0.0546,O=C1c2ccccc2C(=O)N1Sc1nc2ccccc2[nH]1 [1i]
